# Where a name gives a salt, the structure may show the parent alone. Read-outs that look alike come from different tables or passages of the source.
# Assays:
# Experiment in all cases: AK assay 384-well format, Prestwick library screening
# E. faecium = assay type: cell-based, Enterococcus faecium; conditions: 50 μM final drug concentration; for fold induction at 50 µM: Enterococcus faecium, 3 h
# [1] = system: S. aureus strain USA300-0114; assay type: cell-based, Staphylococcus aureus; conditions: 50 μM final drug concentration; for fold induction at 50 µM: Staphylococcus aureus, USA300, 3 h
# K. pneumoniae = assay type: cell-based, Klebsiella pneumoniae; conditions: 50 μM final drug concentration; for fold induction at 50 µM: Klebsiella pneumoniae, 3 h
# [2] = system: A. baumannii strain 98-37-09; assay type: cell-based, Acinetobacter baumannii; conditions: 50 μM final drug concentration; for fold induction at 50 µM: Acinetobacter baumannii, 983709, 3 h
# P. aeruginosa = assay type: cell-based, Pseudomonas aeruginosa; conditions: 50 μM final drug concentration; for fold induction at 50 µM: Pseudomonas aeruginosa, 3 h
# E. cloacae = assay type: cell-based, Enterobacter cloacae; conditions: 50 μM final drug concentration; for fold induction at 50 µM: Enterobacter cloacae, 3 h
# E. coli = assay type: cell-based, Escherichia coli; conditions: 50 μM final drug concentration; for fold induction at 50 µM: Escherichia coli, 3 h
# [3] = planktonic E. faecium, 384-well, cutoff for positive-scoring molecules 3-fold increase, read-out: AK-based Prestwick Library Screening Results: E. faecium (increase in extracellular AK activity)
# [4] = planktonic S. aureus, 384-well, cutoff for positive-scoring molecules 3-fold increase, read-out: AK-based Prestwick Library Screening Results: S. aureus (increase in extracellular AK activity)
# [5] = planktonic K. pneumoniae, 384-well, cutoff for positive-scoring molecules 3-fold increase, read-out: AK-based Prestwick Library Screening Results: K. pneumoniae (increase in extracellular AK activity)
# [6] = planktonic A. baumannii, 384-well, cutoff for positive-scoring molecules 3-fold increase, read-out: AK-based Prestwick Library Screening Results: A. baumannii (increase in extracellular AK activity)
# [7] = planktonic P. aeruginosa, 384-well, cutoff for positive-scoring molecules 3-fold increase, read-out: AK-based Prestwick Library Screening Results: P. aeruginosa (increase in extracellular AK activity)
# [8] = planktonic E. cloacae, 384-well, cutoff for positive-scoring molecules 3-fold increase, read-out: AK-based Prestwick Library Screening Results: E. cloacae (increase in extracellular AK activity)
# [9] = planktonic E. coli, 384-well, cutoff for positive-scoring molecules 3-fold increase, read-out: AK-based Prestwick Library Screening Results: E. coli (increase in extracellular AK activity)
# [10] = cutoff for positive-scoring molecules 3-fold increase
# [11] = planktonic E. faecium, positive cutoff 3-fold increase, read-out: AK-based Prestwick library screening result, E. faecium (fold increase in extracellular AK activity)
# [12] = planktonic S. aureus, positive cutoff 3-fold increase, read-out: AK-based Prestwick library screening result, S. aureus (fold increase in extracellular AK activity)
# [13] = planktonic K. pneumoniae, positive cutoff 3-fold increase, read-out: AK-based Prestwick library screening result, K. pneumoniae (fold increase in extracellular AK activity)
# [14] = planktonic A. baumannii, positive cutoff 3-fold increase, read-out: AK-based Prestwick library screening result, A. baumannii (fold increase in extracellular AK activity)
# [15] = planktonic P. aeruginosa, positive cutoff 3-fold increase, read-out: AK-based Prestwick library screening result, P. aeruginosa (fold increase in extracellular AK activity)
# [16] = planktonic E. cloacae, positive cutoff 3-fold increase, read-out: AK-based Prestwick library screening result, E. cloacae (fold increase in extracellular AK activity)
# [17] = planktonic E. faecium, cutoff for positive-scoring molecules 3-fold increase, read-out: AK-based Prestwick Library Screening Results, E. faecium (increase in extracellular AK activity)
# [18] = planktonic S. aureus, cutoff for positive-scoring molecules 3-fold increase, read-out: AK-based Prestwick Library Screening Results, S. aureus (increase in extracellular AK activity)
# [19] = planktonic K. pneumoniae, cutoff for positive-scoring molecules 3-fold increase, read-out: AK-based Prestwick Library Screening Results, K. pneumoniae (increase in extracellular AK activity)
# [20] = planktonic A. baumannii, cutoff for positive-scoring molecules 3-fold increase, read-out: AK-based Prestwick Library Screening Results, A. baumannii (increase in extracellular AK activity)
# [21] = planktonic P. aeruginosa, cutoff for positive-scoring molecules 3-fold increase, read-out: AK-based Prestwick Library Screening Results, P. aeruginosa (increase in extracellular AK activity)
# [22] = planktonic E. cloacae, cutoff for positive-scoring molecules 3-fold increase, read-out: AK-based Prestwick Library Screening Results, E. cloacae (increase in extracellular AK activity)
# [23] = planktonic E. coli, cutoff for positive-scoring molecules 3-fold increase, read-out: AK-based Prestwick Library Screening Results, E. coli (increase in extracellular AK activity)
# [24] = planktonic E. coli, […], read-out: AK-based Prestwick library screening result, E. coli (fold increase in extracellular AK activity)
# [25] = 384-well format, cutoff for positive-scoring molecules 3-fold increase
structure (smiles),measurement,setting,value
Cc1cc(C(C)(C)C)c(O)c(C)c1CC1=NCCN1 [Oxymetazoline hydrochloride],fold induction at 50 µM,E. faecium; [3],1
same,fold induction at 50 µM,[1]; [4],1.1
same,fold induction at 50 µM,K. pneumoniae; [5],1.1
same,fold induction at 50 µM,[2]; [6],1.4
same,fold induction at 50 µM,P. aeruginosa; [7],1.2
same,fold induction at 50 µM,E. cloacae; [8],1.3
same,fold induction at 50 µM,E. coli; [9],1.1
CCCCC1C(=O)N(c2ccccc2)N(c2ccc(O)cc2)C1=O (centres unmarked) [Oxyphenbutazone],"AK-based Prestwick Library Screening Results, E. faecium (fold increase in extracellular AK activity)",E. faecium; [10],0.9
same,"AK-based Prestwick Library Screening Results, S. aureus (fold increase in extracellular AK activity)",[1]; [10],0.4
same,"AK-based Prestwick Library Screening Results, K. pneumoniae (fold increase in extracellular AK activity)",K. pneumoniae; [10],0.5
same,"AK-based Prestwick Library Screening Results, A. baumannii (fold increase in extracellular AK activity)",[2]; [10],0.5
same,"AK-based Prestwick Library Screening Results, P. aeruginosa (fold increase in extracellular AK activity)",P. aeruginosa; [10],0.5
same,"AK-based Prestwick Library Screening Results, E. cloacae (fold increase in extracellular AK activity)",E. cloacae; [10],0.5
same,"AK-based Prestwick Library Screening Results, E. coli (fold increase in extracellular AK activity)",E. coli; [10],0.5
CN(C)[C@@H]1C(O)=C(C(N)=O)C(=O)[C@@]2(O)C(O)=C3C(=O)c4c(O)cccc4[C@@](C)(O)[C@H]3[C@H](O)[C@@H]12 [Oxytetracycline dihydrate],fold induction at 50 µM,E. faecium; [3],0.9
same,fold induction at 50 µM,[1]; [4],3.4
same,fold induction at 50 µM,K. pneumoniae; [5],0.2
same,fold induction at 50 µM,[2]; [6],5.3
same,fold induction at 50 µM,P. aeruginosa; [7],0.5
same,fold induction at 50 µM,E. cloacae; [8],1.1
same,fold induction at 50 µM,E. coli; [9],1
O=C(O)/C=C/c1ccc(Cn2ccnc2)cc1 [Ozagrel hydrochloride],fold induction at 50 µM,E. faecium; [11],0.9
same,fold induction at 50 µM,[1]; [12],0.5
same,fold induction at 50 µM,K. pneumoniae; [13],0.5
same,fold induction at 50 µM,[2]; [14],0.7
same,fold induction at 50 µM,P. aeruginosa; [15],0.6
same,fold induction at 50 µM,E. cloacae; [16],0.9
same,fold induction at 50 µM,"E. coli; planktonic E. coli, positive cutoff 3-fold increase, read-out: AK-based Prestwick library screening result, E. coli (fold increase in extracellular AK activity)",0.6
CC(=O)O[C@H]1C(=O)[C@@]2(C)[C@H]([C@H](OC(=O)c3ccccc3)[C@]3(O)C[C@H](OC(=O)[C@H](O)[C@@H](NC(=O)c4ccccc4)c4ccccc4)C(C)=C1C3(C)C)[C@]1(OC(C)=O)CO[C@@H]1C[C@@H]2O [Paclitaxel],fold induction at 50 µM,E. faecium; [3],1
same,fold induction at 50 µM,[1]; [4],1
same,fold induction at 50 µM,K. pneumoniae; [5],1
same,fold induction at 50 µM,[2]; [6],1.3
same,fold induction at 50 µM,P. aeruginosa; [7],1
same,fold induction at 50 µM,E. cloacae; [8],1.6
same,fold induction at 50 µM,"E. coli; planktonic E. coli, 384-well, […], read-out: AK-based Prestwick Library Screening Results: E. coli (increase in extracellular AK activity)",1.1
COc1cc2c(cc1OC)-c1cc3ccc(OC)c(OC)c3c[n+]1CC2 [Palmatine chloride],fold induction at 50 µM,E. faecium; [17],1
same,fold induction at 50 µM,[1]; [18],0.8
same,fold induction at 50 µM,K. pneumoniae; [19],0.5
same,fold induction at 50 µM,[2]; [20],0.7
same,fold induction at 50 µM,P. aeruginosa; [21],0.7
same,fold induction at 50 µM,E. cloacae; [22],0.9
same,fold induction at 50 µM,E. coli; [23],0.7
CC(=O)O[C@H]1C[C@@H]2CC[C@@H]3[C@H](CC[C@@]4(C)[C@H]3C[C@H]([N+]3(C)CCCCC3)[C@@H]4OC(C)=O)[C@@]2(C)C[C@@H]1[N+]1(C)CCCCC1 [Pancuronium bromide],fold induction at 50 µM,E. faecium; [11],1
same,fold induction at 50 µM,[1]; [12],1.1
same,fold induction at 50 µM,K. pneumoniae; [13],1
same,fold induction at 50 µM,[2]; [14],1.1
same,fold induction at 50 µM,P. aeruginosa; [15],0.9
same,fold induction at 50 µM,E. cloacae; [16],1.6
same,fold induction at 50 µM,E. coli; [24],1.1
CC(C)(CO)[C@@H](O)C(=O)NCCCO [Panthenol (D)],"AK-based Prestwick Library Screening Results, E. faecium (increase in extracellular AK activity)",E. faecium; [25],0.8
same,"AK-based Prestwick Library Screening Results, S. aureus (increase in extracellular AK activity)",[1]; [25],0.6
same,"AK-based Prestwick Library Screening Results, K. pneumoniae (increase in extracellular AK activity)",K. pneumoniae; [25],0.7
same,"AK-based Prestwick Library Screening Results, A. baumannii (increase in extracellular AK activity)",[2]; [25],0.8
same,"AK-based Prestwick Library Screening Results, P. aeruginosa (increase in extracellular AK activity)",P. aeruginosa; [25],0.7
same,"AK-based Prestwick Library Screening Results, E. cloacae (increase in extracellular AK activity)",E. cloacae; [25],1.0
same,"AK-based Prestwick Library Screening Results, E. coli (increase in extracellular AK activity)",E. coli; [25],0.9
COc1ccc(Cc2nccc3cc(OC)c(OC)cc23)cc1OC [Papaverine hydrochloride],fold induction at 50 µM,E. faecium; [17],1
same,fold induction at 50 µM,[1]; [18],0.6
same,fold induction at 50 µM,K. pneumoniae; [19],0.8
same,fold induction at 50 µM,[2]; [20],0.8
same,fold induction at 50 µM,P. aeruginosa; [21],1
same,fold induction at 50 µM,E. cloacae; [22],0.9
same,fold induction at 50 µM,E. coli; [23],0.9
CCCCc1ccc2[nH]c(NC(=O)OC)nc2c1 [Parbendazole],fold induction at 50 µM,"E. faecium; planktonic E. faecium, […], read-out: AK-based Prestwick library screening result, E. faecium (fold increase in extracellular AK activity)",0.6
same,fold induction at 50 µM,"[1]; planktonic S. aureus, […], read-out: AK-based Prestwick library screening result, S. aureus (fold increase in extracellular AK activity)",0.7
same,fold induction at 50 µM,"K. pneumoniae; planktonic K. pneumoniae, […], read-out: AK-based Prestwick library screening result, K. pneumoniae (fold increase in extracellular AK activity)",0.7
same,fold induction at 50 µM,"[2]; planktonic A. baumannii, […], read-out: AK-based Prestwick library screening result, A. baumannii (fold increase in extracellular AK activity)",0.8
same,fold induction at 50 µM,"P. aeruginosa; planktonic P. aeruginosa, […], read-out: AK-based Prestwick library screening result, P. aeruginosa (fold increase in extracellular AK activity)",0.7
same,fold induction at 50 µM,"E. cloacae; planktonic E. cloacae, […], read-out: AK-based Prestwick library screening result, E. cloacae (fold increase in extracellular AK activity)",1.2
same,fold induction at 50 µM,E. coli; [24],0.7
C#CCN(C)Cc1ccccc1 [Pargyline hydrochloride],fold induction at 50 µM,"E. faecium; 384-well format, cutoff for positive-scoring molecules 3-fold increase, read-out: AK-based Prestwick Library Screening Results, E. faecium (increase in extracellular AK activity)",0.9
same,fold induction at 50 µM,"[1]; 384-well format, cutoff for positive-scoring molecules 3-fold increase, read-out: AK-based Prestwick Library Screening Results, S. aureus (increase in extracellular AK activity)",0.8
same,fold induction at 50 µM,"K. pneumoniae; 384-well format, cutoff for positive-scoring molecules 3-fold increase, read-out: AK-based Prestwick Library Screening Results, K. pneumoniae (increase in extracellular AK activity)",0.8
same,fold induction at 50 µM,"[2]; 384-well format, cutoff for positive-scoring molecules 3-fold increase, read-out: AK-based Prestwick Library Screening Results, A. baumannii (increase in extracellular AK activity)",0.9
same,fold induction at 50 µM,"P. aeruginosa; 384-well format, cutoff for positive-scoring molecules 3-fold increase, read-out: AK-based Prestwick Library Screening Results, P. aeruginosa (increase in extracellular AK activity)",1
same,fold induction at 50 µM,"E. cloacae; 384-well format, cutoff for positive-scoring molecules 3-fold increase, read-out: AK-based Prestwick Library Screening Results, E. cloacae (increase in extracellular AK activity)",0.9
same,fold induction at 50 µM,"E. coli; 384-well format, cutoff for positive-scoring molecules 3-fold increase, read-out: AK-based Prestwick Library Screening Results, E. coli (increase in extracellular AK activity)",1

# Reference: patent US10004701B2, “Methods and compositions for treating infection” (UNIVERSITY OF ROCHESTER, priority 2012, dated 2018)
